Columns and labels:
CYP2C19 = CYP2C19 (Homo sapiens, UniProt P33261); experiment: CYP2C19 inhibition (fluorescent substrate CEC); type: in vitro ADME; details: read-out: Cyp IC50 2C19
How it was run: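 Inhibition is measured as the drop in fluorescent metabolite formation across a 10-point compound titration with NADPH regeneration at 37 °C. Incubation lasts 15 min for CYP1A2, 45 min for CYP2C9 and 30 min for CYP2C19 and CYP2D6.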

CYP3A4(BFC) = CYP3A4(BFC) (Homo sapiens, UniProt P08684); experiment: CYP3A4(BFC) inhibition; type: in vitro ADME; details: CYP3A4, substrate BFC; read-out: Cyp IC50 3A4(BFC)
How it was run: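 Inhibition of human CYP3A4 with the BFC substrate was measured by fluorescence loss of the metabolized product. Compounds at 100 mM in DMSO were diluted 1 μL into 82 μL acetonitrile, then 11 μL into 204 μL cofactor mix with NADPH regeneration solutions, and serially diluted 1:1 to 10 points. Plates were incubated 30 min at 37° C and read at 409 ex/460 em to obtain IC50.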

TrkA kinase = TrkA kinase (Homo sapiens, UniProt P04629); experiment: TrkA kinase biochemical activity assay (AlphaScreen); details: 100 μM ATP; read-out: Biochemical Inhibition IC50 TrkA
How it was run: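 Recombinant TrkA with 30 nM biotin-(E4Y)10 and 100 μM ATP in 25 mM Hepes pH 7.5, 10 mM MnCl2, 5% DMSO, 40 min at room temperature. Phosphorylation read by AlphaScreen (streptavidin donor, PY20 acceptor beads); IC50 from signal vs compound concentration. TrkC run similarly.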

CYP3A4(BQ) = CYP3A4(BQ) (Homo sapiens, UniProt P08684); experiment: CYP3A4(BQ) inhibition; type: in vitro ADME; details: CYP3A4, substrate BQ; read-out: Cyp IC50 3A4(BQ)
How it was run: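 Inhibition of human CYP3A4 (BQ substrate) was measured by fluorescence, since blocking metabolism of a known substrate lowers the fluorescent product signal. Compounds dissolved in DMSO at 100 mM were diluted into acetonitrile and then into NADPH regeneration cofactor mix, serially diluted 1:1 across 10 points, and preincubated in 384 well plates for 10 minutes at 37° C.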

Sequence of CYP2C19 (P33261 whole entry): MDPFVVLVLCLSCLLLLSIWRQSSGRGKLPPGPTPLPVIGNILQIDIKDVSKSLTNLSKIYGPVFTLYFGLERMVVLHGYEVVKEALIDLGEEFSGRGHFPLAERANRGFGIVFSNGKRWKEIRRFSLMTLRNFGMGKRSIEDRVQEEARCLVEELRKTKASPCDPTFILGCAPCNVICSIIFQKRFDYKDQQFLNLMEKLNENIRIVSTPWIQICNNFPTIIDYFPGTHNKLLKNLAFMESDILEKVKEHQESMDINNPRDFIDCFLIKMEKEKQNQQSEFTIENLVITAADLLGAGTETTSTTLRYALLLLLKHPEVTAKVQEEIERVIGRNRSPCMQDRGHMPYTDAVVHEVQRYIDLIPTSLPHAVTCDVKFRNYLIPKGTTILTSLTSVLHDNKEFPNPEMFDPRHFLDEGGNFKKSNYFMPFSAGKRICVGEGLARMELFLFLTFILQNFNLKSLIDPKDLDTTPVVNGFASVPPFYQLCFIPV
Sequence of TrkA kinase (P04629 33-796): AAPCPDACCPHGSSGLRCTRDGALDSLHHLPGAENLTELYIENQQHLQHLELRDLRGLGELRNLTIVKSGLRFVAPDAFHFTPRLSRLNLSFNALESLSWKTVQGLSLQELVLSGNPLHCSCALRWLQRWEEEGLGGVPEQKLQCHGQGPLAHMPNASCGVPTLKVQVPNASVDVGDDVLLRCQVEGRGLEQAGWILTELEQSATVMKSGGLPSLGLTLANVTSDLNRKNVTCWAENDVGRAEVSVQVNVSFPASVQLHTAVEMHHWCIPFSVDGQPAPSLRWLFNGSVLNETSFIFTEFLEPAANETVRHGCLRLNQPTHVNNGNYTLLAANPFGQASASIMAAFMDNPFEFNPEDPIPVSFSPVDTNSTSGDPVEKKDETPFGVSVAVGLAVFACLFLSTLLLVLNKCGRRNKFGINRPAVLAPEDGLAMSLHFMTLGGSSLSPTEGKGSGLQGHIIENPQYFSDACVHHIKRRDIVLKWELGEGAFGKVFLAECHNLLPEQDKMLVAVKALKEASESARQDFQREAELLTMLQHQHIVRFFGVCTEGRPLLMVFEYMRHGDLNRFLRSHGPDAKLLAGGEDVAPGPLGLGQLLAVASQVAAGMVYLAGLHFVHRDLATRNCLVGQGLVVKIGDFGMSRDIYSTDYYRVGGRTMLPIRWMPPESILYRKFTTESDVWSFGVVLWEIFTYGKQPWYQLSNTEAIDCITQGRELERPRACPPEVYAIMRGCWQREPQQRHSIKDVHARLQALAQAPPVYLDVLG
Sequence of CYP3A4(BQ) (P08684 whole entry): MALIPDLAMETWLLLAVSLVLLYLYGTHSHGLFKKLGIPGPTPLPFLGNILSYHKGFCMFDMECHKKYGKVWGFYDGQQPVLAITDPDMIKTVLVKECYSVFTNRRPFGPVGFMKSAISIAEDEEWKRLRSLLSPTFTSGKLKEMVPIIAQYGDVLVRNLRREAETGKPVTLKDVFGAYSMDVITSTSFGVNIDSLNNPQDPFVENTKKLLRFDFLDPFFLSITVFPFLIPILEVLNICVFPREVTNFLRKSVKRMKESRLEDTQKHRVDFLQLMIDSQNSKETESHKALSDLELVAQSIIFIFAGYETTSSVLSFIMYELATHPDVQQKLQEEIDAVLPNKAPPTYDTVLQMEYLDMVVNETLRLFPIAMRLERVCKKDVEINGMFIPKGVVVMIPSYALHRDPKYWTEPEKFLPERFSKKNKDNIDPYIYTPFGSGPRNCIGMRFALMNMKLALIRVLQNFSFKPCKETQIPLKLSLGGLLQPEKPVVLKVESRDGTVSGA
Sequence of CYP3A4(BFC) (P08684 whole entry): as above

Compound: Cc1cnc2[nH]cc(Cc3ccc(NC4CCCCC4)nc3F)c2c1 [Compound P-3008, cyclohexyl-[6-fluoro-5-(5-methyl-1H-pyrrolo[2,3-b]pyridin-3-ylmethyl)-pyridin-2-yl]-amine]
- IC50 (CYP2C19): < 5 µM
- IC50 (CYP3A4(BFC)): 5 to 10 µM

Compound: O=C(c1ccc(Nc2ccc(C3CC3)nc2)nc1F)c1c[nH]c2ncnc(C3CC3)c12 [Compound P-4040, [6-(6-Cyclopropyl-pyridin-3-ylamino)-2-fluoro-pyridin-3-yl]-(4-cyclopropyl-7H-pyrrolo[2,3-d]pyrimidin-5-yl)-methanone]
- IC50 (TrkA kinase): < 0.01 µM

Compound: Fc1nc(Nc2ccc(C3CC3)nc2)ccc1Cc1c[nH]c2ncnc(C3CC3)c12 [Compound P-4041, (6-Cyclopropyl-pyridin-3-yl)-[5-(4-cyclopropyl-7H-pyrrolo[2,3-d]pyrimidin-5-ylmethyl)-6-fluoro-pyridin-2-yl]-amine]
- IC50 (CYP2C19): < 5 µM
- IC50 (CYP3A4(BQ)): 5 to 10 µM
- IC50 (TrkA kinase): < 0.01 µM
- IC50 (CYP3A4(BFC)): > 10 µM

Compound: Nc1ncnc2[nH]cc(C(=O)c3ccc(NC4CCC(F)(F)CC4)nc3Cl)c12 [Compound P-4046, (4-amino-7H-pyrrolo[2,3-d]pyrimidin-5-yl)-[2-chloro-6-[(4,4-difluorocyclohexyl)amino]-3-pyridyl]methanone]
- IC50 (TrkA kinase): < 1 µM

Compound: CC(C)=CNc1ncnc2[nH]cc(C(=O)c3ccc(NC4CCC(F)(F)CC4)nc3Cl)c12 [Compound P-4047, [2-chloro-6-[(4,4-difluorocyclohexyl)amino]-3-pyridyl]-[4-(2-methylprop-1-enylamino)-7H-pyrrolo[2,3-d]pyrimidin-5-yl]methanone]
- IC50 (CYP2C19): > 10 µM
- IC50 (CYP3A4(BQ)): > 10 µM
- IC50 (TrkA kinase): > 1 µM
- IC50 (CYP3A4(BFC)): > 10 µM

Compound: Nc1ncnc2[nH]cc(C(=O)c3ccc(Nc4ccc(C5CC5)nc4)nc3F)c12 [Compound P-4048, (4-amino-7H-pyrrolo[2,3-d]pyrimidin-5-yl)-[6-[(6-cyclopropyl-3-pyridyl)amino]-2-fluoro-3-pyridyl]methanone]
- IC50 (CYP2C19): > 10 µM
- IC50 (CYP3A4(BQ)): > 10 µM
- IC50 (TrkA kinase): < 0.01 µM
- IC50 (CYP3A4(BFC)): > 10 µM

Compound: CC(C)(O)CNc1ncnc2[nH]cc(C(=O)c3ccc(Nc4ccc(C5CC5)nc4)nc3F)c12 [Compound P-4049, [6-[(6-cyclopropyl-3-pyridyl)amino]-2-fluoro-3-pyridyl]-[4-[(2-hydroxy-2-methyl-propyl)amino]-7H-pyrrolo[2,3-d]pyrimidin-5-yl]methanone]
- IC50 (CYP2C19): 5 to 10 µM
- IC50 (CYP3A4(BQ)): > 10 µM
- IC50 (TrkA kinase): < 0.01 µM
- IC50 (CYP3A4(BFC)): > 10 µM

Compound: CCNc1ncnc2[nH]cc(C(=O)c3ccc(NC4CCC(F)(F)CC4)nc3Cl)c12 [Compound P-4050, [2-chloro-6-[(4,4-difluorocyclohexyl)amino]-3-pyridyl]-[4-(ethylamino)-7H-pyrrolo[2,3-d]pyrimidin-5-yl]methanone]
- IC50 (CYP2C19): > 10 µM
- IC50 (CYP3A4(BQ)): > 10 µM
- IC50 (TrkA kinase): < 1 µM
- IC50 (CYP3A4(BFC)): > 10 µM

Compound: CCNc1ncnc2[nH]cc(C(=O)c3cnc(NC4CCC(F)(F)CC4)c(F)c3)c12 [Compound P-4051, [6-[(4,4-difluorocyclohexyl)amino]-5-fluoro-3-pyridyl]-[4-(ethylamino)-7H-pyrrolo[2,3-d]pyrimidin-5-yl]methanone]
- IC50 (CYP2C19): > 10 µM
- IC50 (CYP3A4(BQ)): > 10 µM
- IC50 (TrkA kinase): < 0.01 µM
- IC50 (CYP3A4(BFC)): > 10 µM

Compound: O=C(c1cnc(NC2CCC(F)(F)CC2)c(F)c1)c1c[nH]c2ncnc(NCC(F)(F)F)c12 [Compound P-4052, [6-[(4,4-difluorocyclohexyl)amino]-5-fluoro-3-pyridyl]-[4-(2,2,2-trifluoroethylamino)-7H-pyrrolo[2,3-d]pyrimidin-5-yl]methanone]
- IC50 (CYP2C19): > 10 µM
- IC50 (CYP3A4(BQ)): > 10 µM
- IC50 (TrkA kinase): < 1 µM
- IC50 (CYP3A4(BFC)): > 10 µM

Compound: O=C(c1cnc(NC2CCC(F)(F)CC2)c(F)c1)c1c[nH]c2ncnc(NC3CC3)c12 [Compound P-4053, [4-(cyclopropylamino)-7H-pyrrolo[2,3-d]pyrimidin-5-yl]-[6-[(4,4-difluorocyclohexyl)amino]-5-fluoro-3-pyridyl]methanone]
- IC50 (CYP2C19): > 10 µM
- IC50 (CYP3A4(BQ)): > 10 µM
- IC50 (TrkA kinase): < 0.01 µM
- IC50 (CYP3A4(BFC)): > 10 µM

Compound: CNc1ncnc2[nH]cc(C(=O)c3cnc(NC4CCC(F)(F)CC4)c(F)c3)c12 [Compound P-4054, [6-[(4,4-difluorocyclohexyl)amino]-5-fluoro-3-pyridyl]-[4-(methylamino)-7H-pyrrolo[2,3-d]pyrimidin-5-yl]methanone]
- IC50 (CYP2C19): > 10 µM
- IC50 (CYP3A4(BQ)): > 10 µM
- IC50 (TrkA kinase): < 0.1 µM
- IC50 (CYP3A4(BFC)): > 10 µM

Source: patent publication US8901118B2, “Compounds and methods for kinase modulation, and indications therefor” (Plexxikon Inc., priority 2010, dated 2014)
